Data reported in patent US7816371B2, “Bicycloheteroaryl compounds as P2X7 modulators and uses thereof” (Renovis, Inc., priority 2006, dated 2010).

These compounds were tested against T1, P2X7 receptor (Homo sapiens, UniProt Q99572) (assay: IL-1β release assay in differentiated THP-1 cells stimulated with BzATP (Example 9); % inhibition and IC50). Conditions: THP-1 cells differentiated with LPS and IFN-γ, 30 min pretreatment, BzATP 250 uM, IL-1β by ELISA.
T1 construct: host or cells: THP-1 cells differentiated with LPS and IFN-γ
T1 sequence (Q99572 1-595): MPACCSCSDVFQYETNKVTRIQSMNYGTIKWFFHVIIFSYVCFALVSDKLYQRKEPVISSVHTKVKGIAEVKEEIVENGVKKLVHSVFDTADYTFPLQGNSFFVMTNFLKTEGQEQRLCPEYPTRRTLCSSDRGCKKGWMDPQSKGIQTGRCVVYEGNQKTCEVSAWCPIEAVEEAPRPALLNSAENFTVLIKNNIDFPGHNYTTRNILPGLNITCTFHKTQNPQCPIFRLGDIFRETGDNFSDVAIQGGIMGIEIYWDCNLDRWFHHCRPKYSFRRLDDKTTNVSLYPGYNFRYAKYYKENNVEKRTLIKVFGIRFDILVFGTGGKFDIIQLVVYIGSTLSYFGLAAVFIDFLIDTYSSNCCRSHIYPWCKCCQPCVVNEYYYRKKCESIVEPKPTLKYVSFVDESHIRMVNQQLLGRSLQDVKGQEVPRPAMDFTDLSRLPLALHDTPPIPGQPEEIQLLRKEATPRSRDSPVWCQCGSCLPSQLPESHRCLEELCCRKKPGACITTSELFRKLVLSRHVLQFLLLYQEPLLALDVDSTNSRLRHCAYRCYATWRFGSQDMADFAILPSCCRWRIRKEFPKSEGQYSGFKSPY
Type: cell-based
Experimental: The cells are then pretreated for 30 minutes with the compound of interest at the appropriate concentration in RPMI media containing 100 IU/mL penicillin, 100 ug/mL streptomycin. […] 30 uL of cell supernatant is then collected and IL-1β levels determined via ELISA (R&D systems Cat. # HSLB50) according to manufacturer's recommendations using the Tecan Safire plate reader. Background adjusted IL-1β levels of drug treated and non-treated cells are used to calculate the percent inhibition.
The compounds set forth in Table 1 were tested for activity in a cellular model as described herein.

Compound	IC50 [nM]
CC(C)(CO)n1ccc2c(NC(=O)Cc3ccc(Cl)c(Cl)c3)cccc2c1=O [Compound 371]	157
O=C(Cc1ccc(F)cc1)Nc1cccc2c(=O)n(CCO)ccc12 [Compound 73]	532
O=C(Cc1ccc(Cl)cc1Cl)Nc1cccc2c(=O)n(C(CO)CO)ccc12 [Compound 82]	228
C[C@@H](CO)n1ccc2c(NC(=O)Cc3cccc(C(F)(F)F)c3F)cccc2c1=O [Compound 325]	84.6
C[C@H](C(N)=O)n1ccc2c(NC(=O)Cc3c(F)cccc3F)cccc2c1=O [Compound 292]	> 1000
CCC(C(=O)Nc1cccc2c(=O)n(CCO)ccc12)c1ccccc1 (centres unmarked) [Compound 74]	> 1000
O=C(Cc1ccc2c(c1)OCCO2)Nc1cccc2c(=O)n(CCO)ccc12 [Compound 63]	> 1000
C[C@H](CO)n1ccc2c(NC(=O)Cc3ccc(F)c(C(F)(F)F)c3)c(Cl)ccc2c1=O [Compound 377, N-[6-Chloro-2-((R)-2-hydroxy-1-methyl-ethyl)-1-oxo-1,2-dihydro-isoquinolin-5-yl]-2-(4-fluoro-3-trifluoromethyl-phenyl)-acetamide]	0.38
COc1ccc(CC(=O)Nc2cccc3c(=O)n(CCO)ccc23)cc1Br [Compound 66]	110
O=C(Cc1ccc(Cl)c(F)c1)Nc1cccc2c(=O)n(CCO)ccc12 [Compound 354]	84.2
CNC(=O)[C@@H](C(C)C)n1ccc2c(NC(=O)[C@@H](C)c3ccc(Cl)cc3)cccc2c1=O [Compound 276, (R)-2-{5-[(S)-2-(4-Chloro-phenyl)-propionylamino]-1-oxo-1H-isoquinolin-2-yl}-3,N-dimethyl-butyramide]	53.3
C[C@H](C(N)=O)n1ccc2c(NC(=O)Cc3ccccc3F)cccc2c1=O [Compound 294]	663
C[C@H](C(N)=O)n1ccc2c(NC(=O)Cc3ccccn3)cccc2c1=O [Compound 309]	> 1000
C[C@H](C(N)=O)n1ccc2c(NC(=O)Cc3c(F)cccc3C(F)(F)F)cccc2c1=O [Compound 286]	374
C[C@H](C(N)=O)n1ccc2c(NC(=O)Cc3ccc(C#N)cc3)cccc2c1=O [Compound 287]	332
CC(C(=O)Nc1cccc2c(=O)n(C(CO)CO)ccc12)c1ccc(Cl)cc1 (centres unmarked) [Compound 231]	374
NCC(CCl)Cn1ccc2c(NC(=O)Cc3ccc(Cl)c(Cl)c3)cccc2c1=O (centres unmarked) [Compound 259]	208
O=C(Cc1cc(C(F)(F)F)cc(C(F)(F)F)c1)Nc1cccc2c(=O)n(CCO)ccc12 [Compound 64]	113
O=C(Cc1ccc(F)c(Cl)c1)Nc1cccc2c(=O)n(CCO)ccc12 [Compound 341]	52.6
COc1ccc(CC(=O)Nc2cccc3c(=O)n(CCO)ccc23)cc1 [Compound 2]	> 1000
C[C@@H](CO)n1ccc2c(NC(=O)Cc3ccc(Cl)cc3F)cccc2c1=O [Compound 328]	202
O=C(Cc1ccc(F)c(C(F)(F)F)c1)Nc1c(Cl)ccc2c(=O)n(CCO)ccc12 [Compound 386, N-[6-Chloro-2-(2-hydroxy-ethyl)-1-oxo-1,2-dihydro-isoquinolin-5-yl]-2-(4-fluoro-3-trifluoromethyl-phenyl)-acetamide]	5.45
C[C@@H](CO)n1ccc2c(NC(=O)Cc3ccc(C(F)(F)F)cc3)cccc2c1=O [Compound 318]	132
COc1ccc(OC)c(CC(=O)Nc2cccc3c(=O)n(CCO)ccc23)c1 [Compound 77]	> 1000
C[C@H](C(N)=O)n1ccc2c(NC(=O)Cc3ccccc3Cl)cccc2c1=O [Compound 260]	694
CS(=O)(=O)c1ccc(CCC(=O)Nc2cccc3c(=O)n(CCO)ccc23)cc1 [Compound 71]	> 1000

Now from value to compound:

IC50 [nM]	Compound
18.8	CC(C(=O)Nc1cccc2c(=O)n([C@H](C)C(N)=O)ccc12)c1ccc(Cl)cc1 (some centres unmarked) [Compound 247]
3.19	CC(C(=O)Nc1cccc2c(=O)n([C@H](C)C(N)=O)ccc12)c1ccc(Cl)c(C(F)(F)F)c1 (stereo partly drawn) [Compound 267, (R)-2-{5-[2-(4-Chloro-3-trifluoromethyl-phenyl)-propionylamino]-1-oxo-1H-isoquinolin-2-yl}-propionamide]
35.8	C[C@@H](C(N)=O)n1ccc2c(NC(=O)Cc3ccc(C(F)(F)F)cc3)cccc2c1=O [Compound 351]
9.15	CC(C(=O)Nc1cccc2c(=O)n([C@H](C)C(N)=O)ccc12)c1cccc(C(F)(F)F)c1F (some centres unmarked) [Compound 337]
7.39	CC(C)[C@H](C(=O)NC1CC1)n1ccc2c(NC(=O)[C@@H](C)c3ccc(Cl)cc3)cccc2c1=O [Compound 281, (R)-2-{5-[(S)-2-(4-Chloro-phenyl)-propionylamino]-1-oxo-1H-isoquinolin-2-yl}-N-cyclopropyl-3-methyl-butyramide]
23.6	C[C@H](C(N)=O)n1ccc2c(NC(=O)Cc3ccc(Cl)cc3C(F)(F)F)cccc2c1=O [Compound 241]
10.7	O=C(Cc1ccc(Cl)c(C(F)(F)F)c1)Nc1cccc2c(=O)n(C[C@@H]3CCCN3)ccc12 [Compound 232, 2-(4-Chloro-3-trifluoromethyl-phenyl)-N-(1-oxo-2-(S)-1-pyrrolidin-2-ylmethyl-1,2-dihydro-isoquinolin-5-yl)-acetamide]
30.4	C[C@H](C(N)=O)n1ccc2c(NC(=O)Cc3ccc(F)c(F)c3F)cccc2c1=O [Compound 379]
4.65	C[C@H](CO)n1ccc2c(NC(=O)Cc3ccc(C(F)(F)F)c(F)c3)c(Cl)ccc2c1=O [Compound 375, N-[6-Chloro-2-((R)-2-hydroxy-1-methyl-ethyl)-1-oxo-1,2-dihydro-isoquinolin-5-yl]-2-(3-fluoro-4-trifluoromethyl-phenyl)-acetamide]
36.3	C[C@H](C(N)=O)n1ccc2c(NC(=O)Cc3cc(F)c(F)cc3F)cccc2c1=O [Compound 305]
4.83	NC(=O)Cn1ccc2c(NC(=O)Cc3ccc(Cl)c(C(F)(F)F)c3)cccc2c1=O [Compound 249, 2-{5-[2-(4-Chloro-3-trifluoromethyl-phenyl)-acetylamino]-1-oxo-1H-isoquinolin-2-yl}-acetamide]
18.5	C[C@H](C(N)=O)n1ccc2c(NC(=O)Cc3ccc(F)c(Br)c3)cccc2c1=O [Compound 307]
10.8	O=C(Cc1ccc(Cl)cc1Cl)Nc1cccc2c(=O)n(CCO)ccc12 [Compound 69]
16.6	C[C@H](C(N)=O)n1ccc2c(NC(=O)Cc3cccc(C(F)(F)F)c3)cccc2c1=O [Compound 297]
48.1	C[C@@H](CO)n1ccc2c(NC(=O)Cc3ccc(F)c(C(F)(F)F)c3)cccc2c1=O [Compound 338]
22.1	C[C@H](CO)n1ccc2c(NC(=O)Cc3cccc(C(F)(F)F)c3F)cccc2c1=O [Compound 324]
31.2	C[C@@H](C(N)=O)n1ccc2c(NC(=O)Cc3ccc(C(F)(F)F)c(F)c3)cccc2c1=O [Compound 347]
43.1	C[C@H](CO)n1ccc2c(NC(=O)Cc3ccc(C(F)(F)F)cc3F)cccc2c1=O [Compound 359]
20.6	C[C@H](C(N)=O)n1ccc2c(NC(=O)Cc3ccc(F)cc3Cl)cccc2c1=O [Compound 291]
5.54	Cc1ccc2c(=O)n([C@H](C)CO)ccc2c1NC(=O)Cc1ccc(C(F)(F)F)cc1 [Compound 397]
0.74	Cc1ccc2c(=O)n([C@H](C)CO)ccc2c1NC(=O)Cc1ccc(F)c(C(F)(F)F)c1 [Compound 394]
